# Assay results taken from patent US20040200144A1, “Plant growth regulator and a method of producing the regulator” (Dainichiseika Color & Chemicals Mfg. Co., Ltd., priority 2003, published 2004).
# Assays:
# Type in all cases: in vivo
# eggplant young plants = assay: Dwarfing test of eggplant young plant; conditions: for Plant Height / Dwarfing Rate: 5 ml per cell on 7th day, measured 25th day; for Dwarfing Rate: vs comparative group
# Description: After seeding, the pot was placed in the same greenhouse as described above to sprout. Subsequently, on the 5th day, the cinnamic aqueous acid solutions were added to the nursery soil in the joint pots. One of the joint pots (24 cells) was prepared as a 0.05% cinnamic acid aqueous solution addition group, and 5 ml of the 0.05% cinnamic acid aqueous solution was added to the nursery soil of each cell. Another one of the join pots was prepared as a 0.2% cinnamic acid aqueous solution addition group, and 5 ml of the 0.2% cinnamic acid aqueous solution was added to the nursery soil of each cell. […] Subsequently, the cultivation of carrot young plants in each group was continued under general conditions. On the 27th day, the heights of young plants in each group were measured, the dwarfing rate (%) was calculated, and the dwarfing effect of cinnamic acid aqueous solution on carrot young plants was examined. From the results in Table 5, it became evident that the 0.05% and 0.2% cinnamic acid aqueous solutions are effective in dwarfing carrot young plants. In the same way as in Example 5 except that seeds of cauliflower were sowed, the cinnamic acid solutions were added to the nursery soil in the joint pot on the 4th day, and that heights of young plants in each group were measured on the 20th day, the dwarfing effect of cinnamic acid aqueous solution on cauliflower young plants was examined. From the results in Table 12, it became evident that the cinnamic acid aqueous solutions are effective in dwarfing cauliflower young plants. In the same way as in Example 12 except that seeds of tomato were sowed, and that the cinnamic acid solutions were added to the nursery soil of the joint pot on the 7th day, the dwarfing effect of cinnamic acid aqueous solution on tomato young plants was examined. From the results in Table 17, it became evident that the cinnamic acid aqueous solutions are effective in dwarfing tomato young plants. In the same way as in Example 17 except that seeds of eggplant were sowed, and that plant heights were measured on the 25th day, the dwarfing effect of cinnamic acid aqueous solution on eggplant young plants was examined. From the results in Table 19, it became evident that the cinnamic acid aqueous solutions are effective in dwarfing eggplant young plants.
# cauliflower young plants = assay: Dwarfing test of cauliflower young plant; conditions: for Plant Height / Dwarfing Rate: 5 ml per cell on 4th day, measured 20th day; for Dwarfing Rate: vs comparative group
# Description: [The source words this procedure for another target and says it was used here with some conditions changed.] (§1) 50 g of sodium tripolyphosphate was dissolved in 400 ml of distilled water at 80° C., 17.5 g of cinnamic acid was added to the sodium tripolyphosphate solution and dissolved by stirring, the resultant solution was diluted with distilled water until the total volume of solution was 500 ml, and thus 3.5% cinnamic acid aqueous solution (pH 6.5) was prepared. The aqueous solution was further diluted with distilled water 70 times or 17.5 times, and 0.05% cinnamic acid aqueous solution and 0.2% cinnamic acid aqueous solution were prepared, respectively.
# (§2) Nursery soil for house use was filled into paper joint pots (each with 24 cells: 34×43×50 mm/cell), water was sufficiently given to the soil, and seeds of carrots were sowed. After seeding, the pot was placed in the same greenhouse as described above to sprout. Subsequently, on the 5th day, the cinnamic aqueous acid solutions were added to the nursery soil in the joint pots. One of the joint pots (24 cells) was prepared as a 0.05% cinnamic acid aqueous solution addition group, and 5 ml of the 0.05% cinnamic acid aqueous solution was added to the nursery soil of each cell. Another one of the join pots was prepared as a 0.2% cinnamic acid aqueous solution addition group, and 5 ml of the 0.2% cinnamic acid aqueous solution was added to the nursery soil of each cell. The other one of the joint pots was prepared as a comparative group in which 5 ml of water is added to each cell, instead of the cinnamic acid aqueous solution. Subsequently, the cultivation of carrot young plants in each group was continued under general conditions. On the 27th day, the heights of young plants in each group were measured, the dwarfing rate (%) was calculated, and the dwarfing effect of cinnamic acid aqueous solution on carrot young plants was examined. […].
# turnip young plants = assay: Dwarfing test of turnip young plant; conditions: for Plant Height / Dwarfing Rate: 5 ml per cell on 4th day, measured 20th day; for Dwarfing Rate: vs comparative group
# Description: as §1, §2
# In the same way as in Example 12 except that seeds of color turnip were sowed, the dwarfing effect of cinnamic acid aqueous solution on turnip young plants was examined. […]
# hydrangea young plants = assay: Dwarfing test of hydrangea young plant; conditions: for Plant Height / Dwarfing Rate: 100 ml per pot on 42nd day, measured 72nd day; for Dwarfing Rate: vs comparative group
# Description: Dwarfing rate (%)=[(the plant height of the comparative group)−(the plant height of an addition group)/the plant height of the comparative group]×100 […] A cutting of a fresh shoot of hydrangea was planted in the soil of each pot (diameter of 10.5 cm and depth of 8.5 cm) and cultivated continuously after the cuttage. On the 42nd day, top pinching was performed, a young plant was adjusted to have a height of 8 cm and four leaves and planted and fixed in a pot (diameter of 14.5 cm and depth of 14.5 cm) At this point, 100 ml of 0.2% or 0.4% cinnamic acid aqueous solution prepared as described above was added to the nursery soil of 8 pots, and thus 0.2% cinnamic acid aqueous solution addition group and 0.4% cinnamic acid aqueous solution addition group were prepared. Further, 8 pots were prepared as a comparative group on which general watering was performed. The cultivation of young plants of each group was continued. On the 72nd day, heights of young plants in each group were measured, the dwarfing rate (%) was calculated, and the dwarfing effect of cinnamic acid aqueous solution on hydrangea was examined. From the results in Table 26, it became evident that the cinnamic acid solutions are effective in dwarfing hydrangea young plants.
# [1] = system: prince melon young plants; assay: Dwarfing test of prince melon young plant; conditions: for Plant Height / Dwarfing Rate: 5 ml per cell on 7th day, measured 27th day; for Dwarfing Rate: vs comparative group
# Description: as §1, §2
# In the same way as in Example 12 except that seeds of tomato were sowed, and that the cinnamic acid solutions were added to the nursery soil of the joint pot on the 7th day, the dwarfing effect of cinnamic acid aqueous solution on tomato young plants was examined. […].
# In the same way as in Example 17 except that seeds of watermelon were sowed, and that plant heights were measured on the 27th day, the dwarfing effect of cinnamic acid aqueous solution on watermelon young plants was examined. […].
# In the same way as in Example 21 except that seeds of prince melon were sowed, the dwarfing effect of cinnamic acid aqueous solution on prince melon young plants was examined. […]
smiles,measurement,setting,value
O=C(O)C=Cc1ccccc1 [cinnamic acid],Plant Height,eggplant young plants; 0.05% aqueous solution,2.9 cm
same,Dwarfing Rate,eggplant young plants; 0.05% aqueous solution,12.1%
same,Plant Height,eggplant young plants; 0.2% aqueous solution,2.3 cm
same,Dwarfing Rate,eggplant young plants; 0.2% aqueous solution,30.3%
same,dwarfing effect,"eggplant young plants; eggplant young plants, 0.05% and 0.2% aqueous solutions",effective
same,Plant Height,cauliflower young plants; 0.05% aqueous solution,6.8 cm
same,Dwarfing Rate,cauliflower young plants; 0.05% aqueous solution,22.7%
same,Plant Height,cauliflower young plants; 0.2% aqueous solution,5.0 cm
same,Dwarfing Rate,cauliflower young plants; 0.2% aqueous solution,43.2%
same,dwarfing effect,"cauliflower young plants; cauliflower young plants, 0.05% and 0.2% aqueous solutions",effective
same,Plant Height,turnip young plants; 0.05% aqueous solution,7.0 cm
same,Dwarfing Rate,turnip young plants; 0.05% aqueous solution,23.1%
same,Plant Height,turnip young plants; 0.2% aqueous solution,6.0 cm
same,Dwarfing Rate,turnip young plants; 0.2% aqueous solution,34.1%
same,dwarfing effect,"turnip young plants; turnip young plants, 0.05% and 0.2% aqueous solutions",effective
same,Plant Height,hydrangea young plants; 0.2% aqueous solution,15.1 cm
same,Dwarfing Rate,hydrangea young plants; 0.2% aqueous solution,2.6%
same,Plant Height,hydrangea young plants; 0.4% aqueous solution,11.7 cm
same,Dwarfing Rate,hydrangea young plants; 0.4% aqueous solution,24.5%
same,dwarfing effect,"hydrangea young plants; hydrangea young plants, 0.2% and 0.4% aqueous solutions",effective
same,Plant Height,[1]; 0.05% aqueous solution,5.3 cm
same,Dwarfing Rate,[1]; 0.05% aqueous solution,5.4%
same,Plant Height,[1]; 0.2% aqueous solution,4.1 cm
same,Dwarfing Rate,[1]; 0.2% aqueous solution,26.8%
same,dwarfing effect,"[1]; prince melon young plants, 0.05% and 0.2% aqueous solutions",effective
